{"source": "patent US9394309B2", "about": "“Substituted phenylimidazopyrazoles and their use” (BAYER INTELLECTUAL PROPERTY GmbH, priority 2012, dated 2016)", "key": {"endogenous Tie2 receptor": {"target": "endogenous Tie2 receptor (Homo sapiens (Human), UniProt Q02763)", "sequence (Q02763 23-1124)": "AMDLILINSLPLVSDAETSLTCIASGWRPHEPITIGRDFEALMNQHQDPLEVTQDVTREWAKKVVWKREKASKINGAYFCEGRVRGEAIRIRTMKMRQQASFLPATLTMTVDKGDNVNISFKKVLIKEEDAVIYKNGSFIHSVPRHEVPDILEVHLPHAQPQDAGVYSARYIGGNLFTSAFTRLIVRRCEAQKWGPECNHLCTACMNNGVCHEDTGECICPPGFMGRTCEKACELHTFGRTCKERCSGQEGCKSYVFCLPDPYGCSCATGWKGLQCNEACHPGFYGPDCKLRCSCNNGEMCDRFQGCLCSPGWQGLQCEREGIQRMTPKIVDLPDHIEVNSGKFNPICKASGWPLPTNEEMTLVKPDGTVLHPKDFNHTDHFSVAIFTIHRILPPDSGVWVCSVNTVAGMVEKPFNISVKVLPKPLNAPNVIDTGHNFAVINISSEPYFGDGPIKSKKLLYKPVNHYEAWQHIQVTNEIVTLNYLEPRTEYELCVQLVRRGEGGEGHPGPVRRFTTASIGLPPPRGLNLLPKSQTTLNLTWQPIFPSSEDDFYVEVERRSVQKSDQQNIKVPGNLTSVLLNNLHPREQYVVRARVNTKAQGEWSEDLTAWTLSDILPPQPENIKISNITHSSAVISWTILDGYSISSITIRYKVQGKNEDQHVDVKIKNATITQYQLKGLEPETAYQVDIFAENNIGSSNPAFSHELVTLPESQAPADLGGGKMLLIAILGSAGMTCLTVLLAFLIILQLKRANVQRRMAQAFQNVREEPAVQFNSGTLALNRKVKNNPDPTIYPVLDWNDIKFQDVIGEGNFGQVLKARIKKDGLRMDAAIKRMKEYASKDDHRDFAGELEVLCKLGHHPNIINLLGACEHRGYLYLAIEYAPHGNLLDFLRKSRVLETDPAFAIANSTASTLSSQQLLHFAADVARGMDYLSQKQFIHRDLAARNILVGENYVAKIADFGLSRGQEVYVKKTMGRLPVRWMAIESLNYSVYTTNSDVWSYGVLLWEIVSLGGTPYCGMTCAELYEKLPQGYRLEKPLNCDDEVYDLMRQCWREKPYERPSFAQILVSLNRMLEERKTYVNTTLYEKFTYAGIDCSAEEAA", "experiment": "Tie2-pTyr-ELISA (Tie2 autophosphorylation in HUVEC)", "type": "cell-based", "conditions": "autophosphorylation elevated by 4 mM sodium orthovanadate, from 2-7 independent measurements", "method": "The cellular activity of the compounds according to the invention as Tie2 kinase inhibitors was determined in human endothelial cells (HUVEC) by measuring the inhibition of the autophosphorylation, elevated by treatment with sodium orthovanadate, of the endogenous Tie2 receptor by means of a Tie2/phosphotyrosine sandwich ELISA.\nHuman endothelial cells (human umbilical vein endothelial cells, HUVEC) were obtained from Cellsystems (FC-0003), cultured in Vasculife VEGF complete medium (Cellsystems, LL-1020) with 2% foetal calf serum (FCS) at 37° C./5% CO2 and used for Tie2-ELISA measurements up to passage 8.\nHUVEC were plated in a culture volume of 100 μl of Vasculife VEGF complete medium at a cell density of 30 000 cells per well in transparent collagen-coated 96-well cell culture plates (Falcon, #353075) and incubated in an incubation cabinet at 37° C./5% CO2 overnight. The test substances dissolved in DMSO were used to prepare in each case one dilution series in Vasculife VEGF low-serum medium [basal medium with LifeFactors (Cellsystems, LM-0002), without FCS, with 0.1% BSA] without sodium orthovanadate and one dilution series in Vasculife VEGF low-serum-medium with 8 mM sodium orthovanadate in the desired concentrations in the range from […] to […], the final DMSO concentration being 1%. […]"}, "[1]": {"target": "intracellular domain of human Tie2 (GST fusion protein) (Homo sapiens (Human), UniProt Q02763)", "sequence (Q02763 776-1124)": "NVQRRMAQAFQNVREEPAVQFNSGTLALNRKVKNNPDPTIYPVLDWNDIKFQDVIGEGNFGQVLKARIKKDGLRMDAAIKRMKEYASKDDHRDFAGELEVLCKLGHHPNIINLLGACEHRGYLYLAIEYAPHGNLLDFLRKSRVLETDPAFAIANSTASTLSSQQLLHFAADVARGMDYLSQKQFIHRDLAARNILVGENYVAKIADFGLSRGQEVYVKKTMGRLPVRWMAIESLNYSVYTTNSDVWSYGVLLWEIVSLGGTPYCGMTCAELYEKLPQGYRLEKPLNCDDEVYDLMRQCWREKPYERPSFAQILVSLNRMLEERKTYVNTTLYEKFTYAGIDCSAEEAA", "experiment": "Tie2 kinase assay (Tie2-TR-FRET)", "type": "biochemical", "conditions": "ATP concentration 1 mM; in some cases means of several independent determinations", "method": "The Tie2-inhibitory activity of the substances according to the invention was determined with the aid of one of the Tie2-TR-FRET assays described in the sections below at an ATP concentration of 1 mM (TR-FRET=Time-Resolved Fluorescence Resonance Energy Transfer):\nThe enzyme used was a recombinant fusion protein of glutathione S-transferase (GST) and the intracellular domain of human Tie2 (amino acids 776-1124) which was expressed in Baculovirus-infected insect cells (Hi5) and was purified by affinity chromatography on glutathione-Sepharose. Alternatively, it is also possible to use commercially available GST-His6-Tie2 fusion protein (ProQinase GmbH, Freiburg im Breisgau, Germany). The substrate used for the kinase reaction was the biotinylated peptide biotin-Ahx-[…] […]\nThe reaction was stopped by addition of 5 μl of a solution of TR-FRET detection reagents [200 nM streptavidin-XL665 and 2 nM PT66-Eu chelate, a europium chelate-labelled anti-phosphotyrosine antibody (Perkin-Elmer); alternatively, it is also possible to use PT66-Tb cryptate (Cisbio Bioassays, Codolet, France)] in aqueous EDTA solution [90 mM EDTA, 0.28% (w/v) bovine serum albumin (BSA) in 50 mM HEPES pH 7.5]. […] The amount of phosphorylated substrate was then determined by measuring the resonance energy transfer from PT66-Eu chelate to streptavidin-XL665. […]"}}}
{"compound": "Cc1ccc(NC(=O)c2cc(C#N)cc(S(F)(F)(F)(F)F)c2)cc1-n1ccn2nc(-c3cn[nH]c3)cc12", "note": "[Example 85, 3-Cyano-N-{4-methyl-3-[6-(1H-pyrazol-4-yl)-1H-imidazo[1,2-b]pyrazol-1-yl]phenyl}-5-(pentafluoro-λ^6-sulphanyl)benzamide]", "values": [{"measurement": "IC50", "setting": "endogenous Tie2 receptor", "result": 44, "unit": "nM"}, {"measurement": "IC50", "setting": "[1]", "result": 20, "unit": "nM"}]}
